Experimental findings from US12679839B2, “Cyclin-dependent kinase 7 (CDK7) non-covalent inhibitors” (JANSSEN PHARMACEUTICA NV, priority 2020, dated 2026) are described below.

Experiment [1] concerns the target T1, CDK7/Cyclin H/MAT-1 complex (Homo sapiens, UniProt P50613).
T1 construct: Human CDK7 (amino acids 1-346); His6 (N); TEV protease cleavage site (N); made in house; host or cells: baculovirus-SF9 insect cells
The experiment is described as follows: Flint assay, end-point fluorescence (5 nM CDK7/Cyclin H/MAT-1 complex). The settings on record: read-out: CDK7 (5 nM) pIC50 (converted). It counts as biochemical. The procedure, abridged:
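Trimeric complex of His6-TEV-tagged human CDK7 (1-346), MAT1 (1-309) and cyclin H (1-323), co-expressed in Sf9 cells, at 5 nM final, with substrates and coupling reagents as in the absorbance assay; 24 h reaction. End-point NADH fluorescence decrease (ex 340/em 440 nm); % inhibition versus no-inhibitor and full-inhibition controls, IC50 from four-parameter Hill fit.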

Experiment [2] has as its target T1, CDK7/Cyclin H/MAT-1 complex. The experiment can be described thus: Absorbance kinetic assay (20 nM CDK7/Cyclin H/MAT-1 complex). Particulars: read-out: CDK7 (20 nM) pIC50 (converted). The format is biochemical. The procedure, abridged: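 Trimeric complex (His6-TEV CDK7 1-346, MAT1 1-309, cyclin H 1-323) from Sf9 cells, at 20 nM, phosphorylating RNA Pol II-derived CDK7/9-tide; ADP coupled via PK/LDH to NADH depletion read at 340 nm every 2 min for 8 h. Steady-state slopes gave % inhibition; IC50 from 11-point Hill fit.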

Structures are written as SMILES. Some results are limits rather than exact numbers.

T1 sequence (P50613 whole entry, the tested form may be a part): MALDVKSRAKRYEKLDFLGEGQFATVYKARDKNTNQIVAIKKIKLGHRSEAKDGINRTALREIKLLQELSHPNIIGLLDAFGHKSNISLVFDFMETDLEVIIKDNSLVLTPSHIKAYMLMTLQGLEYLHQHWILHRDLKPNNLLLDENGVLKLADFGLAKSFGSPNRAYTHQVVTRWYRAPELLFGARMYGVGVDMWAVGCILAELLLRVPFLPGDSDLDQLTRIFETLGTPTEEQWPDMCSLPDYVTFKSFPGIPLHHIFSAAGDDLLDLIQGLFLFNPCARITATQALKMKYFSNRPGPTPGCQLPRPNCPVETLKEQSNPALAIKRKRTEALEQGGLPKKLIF
T1 sequence (P51946 whole entry partner, the tested form may be a part): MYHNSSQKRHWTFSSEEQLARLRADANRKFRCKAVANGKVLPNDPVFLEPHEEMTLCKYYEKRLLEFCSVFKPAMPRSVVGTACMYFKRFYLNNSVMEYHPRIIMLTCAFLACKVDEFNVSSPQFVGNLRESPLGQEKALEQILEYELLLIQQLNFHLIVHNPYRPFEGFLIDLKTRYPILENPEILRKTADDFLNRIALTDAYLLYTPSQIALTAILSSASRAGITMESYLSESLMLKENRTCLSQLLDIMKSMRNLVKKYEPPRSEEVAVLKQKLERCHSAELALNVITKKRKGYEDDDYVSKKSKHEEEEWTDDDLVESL
T1 sequence (P51948 whole entry partner, the tested form may be a part): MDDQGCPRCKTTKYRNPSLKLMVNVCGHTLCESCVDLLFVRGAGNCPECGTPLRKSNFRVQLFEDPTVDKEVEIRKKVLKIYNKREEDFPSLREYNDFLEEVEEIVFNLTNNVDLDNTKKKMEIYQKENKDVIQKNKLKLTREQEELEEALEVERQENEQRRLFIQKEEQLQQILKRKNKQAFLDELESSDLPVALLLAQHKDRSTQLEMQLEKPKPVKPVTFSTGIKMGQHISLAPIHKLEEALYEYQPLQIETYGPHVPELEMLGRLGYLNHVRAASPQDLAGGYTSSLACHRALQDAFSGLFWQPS

With `CC1CN(C(=O)[C@H]2CCN(C)C[C@@H]2c2ccccc2)Cc2nc(Nc3cnn(C)c3)ncc21` (mixture of isomers) [Compound 194], the IC50 in experiment [1] was 0.00617 µM; in experiment [2] it was 0.0178 µM.
As to `C[C@@H]1Cc2cnc(N[C@@H]3CCC(=O)N(C)C3)nc2CN1C(=O)[C@H]1CCN(C)C[C@@H]1c1ccccc1` (relative stereo) [Compound 6], the IC50 is 0.0038 µM in experiment [1] and less than 0.00977 µM in experiment [2].
For `C[C@@H]1Cc2cnc(N[C@H]3CCOC(C)(C)C3)nc2CN1C(=O)[C@H]1CCN(C)C[C@@H]1c1ccccc1` (relative stereo) [Compound 39], the IC50 was 0.00501 µM in experiment [1] and less than 0.02 µM in experiment [2].
The corresponding values for `Cc1cc([C@@H]2CN(C)CC[C@H]2C(=O)N2Cc3nc(NC4CCOCC4)ncc3C[C@H]2C)ccn1` (relative stereo) [Compound 102] are 0.0195 µM and 0.105 µM.
In the case of `CO[C@H]1CC[C@H](Nc2ncc3c(n2)CN(C(=O)[C@@H]2CCN(C)C[C@H]2c2ccnc(C)c2)[C@H](C)C3)CC1` (relative stereo) [Compound 105], the IC50 in experiment [1] was 0.01 µM; in experiment [2] it was less than 0.00977 µM.
In the case of `C[C@@H]1Cc2cnc(NCc3ccn(C)n3)nc2CN1C(=O)[C@H]1CCN(C)C[C@@H]1c1cccc(C(F)(F)F)c1` (relative stereo) [Compound 129], the IC50 in experiment [1] is 0.0049 µM; in experiment [2], 0.0117 µM.
The corresponding values for `C[C@@H]1Cc2cnc(NC3CCOCC3)nc2CN1C(=O)[C@H]1CCN(C)C[C@@H]1c1ccc(Cl)cc1` (relative stereo) [Compound 132] are 0.00363 µM and 0.00977 µM.
In the case of `C[C@@H]1Cc2cnc(NC3CCOCC3)nc2CN1C(=O)[C@H]1CCN(C)C[C@@H]1c1cccc(F)c1` (relative stereo) [Compound 133], the IC50 in experiment [1] is 0.00813 µM; in experiment [2] it was 0.0123 µM.
The corresponding values for `Cc1cccc([C@H]2CN(C)CC[C@@H]2C(=O)N2Cc3nc(NC4CCOCC4)ncc3C[C@H]2C)c1` (relative stereo) [Compound 134] are 0.00316 µM and less than 0.00977 µM.
`Cc1cccc([C@@H]2CN(C)CC[C@H]2C(=O)N2Cc3nc(NCc4ccn(C)n4)ncc3C[C@H]2C)c1` (relative stereo) [Compound 136]: the IC50 in experiment [1] was 0.0158 µM; in experiment [2] it was 0.0115 µM.
Regarding `C[C@@H]1Cc2cnc(NCc3ccn(C)n3)nc2CN1C(=O)[C@H]1CCN(C)C[C@@H]1c1ccccc1C(F)F` (relative stereo) [Compound 139], the IC50 in experiment [1] was 0.049 µM; in experiment [2], 0.0912 µM.
With `C[C@@H]1Cc2cnc(NCc3ccccc3)nc2CN1C(=O)[C@@H]1CCN(C)C[C@H]1C(F)(F)F` (relative stereo) [Compound 141], the IC50 in experiment [1] was 0.00851 µM; in experiment [2] it was 0.0398 µM.
The corresponding values for `C[C@@H]1Cc2cnc(NCc3ccn(C)n3)nc2CN1C(=O)[C@H]1CCN(C)C[C@@H]1C(F)(F)F` (relative stereo) [Compound 143] are 0.00891 µM and less than 0.00977 µM.
For `C[C@@H]1Cc2cnc(N[C@H]3CCCNC3)nc2CN1C(=O)[C@H]1CCN(C)C[C@@H]1C(F)(F)F` (relative stereo) [Compound 144], in that order: 0.01 µM and less than 0.00977 µM.
Turning to `C[C@@H]1CN(C)CC[C@H]1C(=O)N1Cc2nc(NC3CCOCC3)ncc2C[C@H]1C` (relative stereo) [Compound 145], the IC50 in experiment [1] is 0.1 µM; in experiment [2] it was 0.0676 µM.
For `C[C@@H]1Cc2cnc(NC3CCOCC3)nc2CN1C(=O)[C@H]1CCN(C)C[C@@H]1C` (relative stereo) [Compound 146], in that order: 0.0174 µM and 0.0115 µM.
As to `C[C@H]1CN(C(=O)[C@H]2CCN(C)C[C@@H]2c2ccccc2)[C@@H](C)c2nc(NC3CCOCC3)ncc21` (relative stereo) [Compound 181], the IC50 in experiment [1] was 0.105 µM; in experiment [2], 0.126 µM.
On to `C[C@@H]1CN(C(=O)[C@H]2CCN(C)C[C@@H]2c2ccccc2)Cc2nc(NC3CCOCC3)ncc21` (relative stereo) [Compound 188], for which the values for the IC50 in experiment [1] and in experiment [2] were 0.00282 µM and less than 0.00977 µM, respectively.
As to `CN1CC[C@H](C(=O)N2Cc3nc(NC4CCOCC4)ncc3CC2(C)C)[C@@H](c2ccccc2)C1` (relative stereo) [Compound 189], the IC50 in experiment [1] is 0.0224 µM; in experiment [2], 0.0178 µM.
Take `[2H]C([2H])([2H])N1CC[C@@H](C(=O)N2Cc3nc(NCc4ccn(C)n4)ncc3C[C@H]2C)[C@H](c2cccc(C)c2)C1` (single isomer, unassigned) [Compound 148]: the figures for the IC50 in experiment [1] and in experiment [2] were less than 0.00251 µM and less than 0.00977 µM, respectively.
Turning to `[2H]C([2H])([2H])N1CC[C@H](C(=O)N2Cc3nc(NCc4ccccc4)ncc3C[C@H]2C)[C@@H](c2ccccc2)C1` (single isomer, unassigned) [Compound 154], the IC50 in experiment [1] was 0.00251 µM; in experiment [2] it was less than 0.00977 µM.
For `C[C@@H]1Cc2cnc(NC3CCOCC3)nc2[C@H](C)N1C(=O)[C@H]1CCN(C)C[C@@H]1c1ccccc1` (single isomer, unassigned) [Compound 195b], in that order: 0.0049 µM and less than 0.00977 µM.
